The text below walks through data of US8871681B2, “Herbicidal compositions comprising 4-amino-3-chloro-5-fluoro-6-(4-chloro-2-fluoro-3-methoxyphenyl) pyridine-2-carboxylic acid or a derivative thereof and certain sulfonylureas” (Dow AgroSciences LLC, priority 2012, dated 2014).

Each structure is given as a SMILES string. Values joined by “and” are separate entries in the source; they are usually repeats but may differ in a detail not shown here. Equal entries are not always repeated. Where two headings read alike, the source gives them in different places.

Holding throughout (assay): Postemergence foliar-applied weed control, direct seeded rice, greenhouse (Example I)
The subject of assay [1] is LEFCH (Leptochloa chinensis, Chinese sprangletop). The format is in vivo, Leptochloa chinensis (L.) Nees. The settings on record: for pest or weed control at 4.38 g/ha: 4.38 gae/ha; for pest or weed control at 8.75 g/ha: 8.75 gae/ha. In outline: (§1)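 Greenhouse-grown plants (14 h photoperiod, 29/26 °C day/night) at first to fourth true leaf stage sprayed overhead at 187 L/ha with Compound A (acid equivalent basis) alone or mixed with sulfonylurea ALS inhibitors (active ingredient basis). Final spray contained 1.25% v/v crop oil concentrate; controls received solvent blank.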

Assay [2] relates to IPOHE (Ipomoea hederacea, ivyleaf morningglory). The format is in vivo, Ipomoea hederacea Jacq. From the text:
Seeds or nutlets of the desired test plant species were planted in a soil matrix prepared by mixing a loam or sandy loam soil (e.g., 28.6 percent silt, 18.8 percent clay, and 52.6 percent sand, with a pH of about 5.8 and an organic matter content of about 1.8 percent) and calcareous grit in an 80 to 20 ratio. The soil matrix was contained in plastic pots with a volume of 1 quart and a surface area of 83.6 square centimeters (cm^2). When required to ensure good germination and healthy plants, a fungicide treatment and/or other chemical or physical treatment was applied. The plants were grown for 8-22 days in a greenhouse with an approximate 14 h photoperiod which was maintained at about 29° C. during the day and 26° C. during the night. Nutrients (Peters Excel® 15-5-15 5-Ca 2-Mg and iron chelate) were applied in the irrigation solution as needed and water was added on a regular basis. Supplemental lighting was provided with overhead metal halide 1000-Watt lamps as necessary. The plants were employed for testing when they reached the first through fourth true leaf stage.
Treatments consisted of the acid or esters of 4-amino-3-chloro-5-fluoro-6-(4-chloro-2-fluoro-3-methoxy-phenyl)pyridine-2-carboxylic acid (Compound A), each formulated as an SC, and various herbicidal components alone and in combination. Forms of compound A were applied on an acid equivalent basis.
Other herbicidal components were applied on an active ingredient basis and included acetolactate synthase (ALS)-inhibiting herbicides (sulfonylurea chemical class) azimsulfuron formulated as Gulliver®, bensulfuron-methyl formulated as Londax® 60DF, cyclosulfamuron (technical material), ethoxysulfuron formulated as Sunrice® 15 WDG, flazasulfuron formulated as Katana®, flucetosulfuron formulated as Sukedachi® 1KG G, foramsulfuron formulated as Option®, imazosulfuron formulated as Brazzos® WG, iodosulfuron-methyl-sodium formulated as Hussar®, metsulfuron-methyl formulated as Lorate®, nicosulfuron formulated as Accent®, orthosulfamuron formulated as Strada® WG, primisulfuron-methyl (technical material), propyrisulfuron formulated as Zeta One®, rimsulfuron formulated as Matrix® WG, sulfometuron-methyl formulated as Oust®, and trifloxysulfuron-sodium formulated as Monument® 75WG.
Treatment requirements were calculated based upon the rates being tested, the concentration of active ingredient or acid equivalent in the formulation, and a 12 mL application volume at a rate of 187 L/ha.
For treatments comprised of formulated compounds, measured amounts of compounds were placed individually in 25 mL glass vials and diluted in a volume of 1.25% (v/v) Agri-Dex® crop oil concentrated to obtain 12× stock solutions. […] Application solutions were prepared by adding an appropriate amount of each stock solution (e.g., 1 mL) and diluted to the appropriate final concentrations with the addition of 10 mL of an aqueous mixture of 1.25% (v/v) crop oil concentrate so that the final spray solutions contained 1.25+/−0.05% (v/v) Agrcrop oil concentrate.
For treatments comprised of formulated and technical compounds, weighed amounts of the technical materials were placed individually in 25 mL glass vials and dissolved in a volume of 97:3 v/v acetone/DMSO to obtain 12× stock solutions, and measured amounts of the formulated compounds were placed individually in 25 mL glass vials and diluted in a volume of 1.25% (v/v) crop oil concentrate to obtain 12× stock solutions. […] Application solutions were prepared by adding an appropriate amount of each stock solution (e.g., 1 mL) and diluted to the appropriate final concentrations with the addition of an appropriate amount of an aqueous mixture of 1.5% (v/v) crop oil concentrate so that the final spray solutions contained 1.25% (v/v) crop oil concentrate. […]

The subject of assay [3] is CYPIR (Cyperus iria, rice flatsedge). The format is in vivo, Cyperus iria L. In short, it runs like this:
as §1

Where [4] appears, read: Dinebra chinensis, post-emergence, 480 h, 20 DAA, read-out: Visual Weed Control (%) Obs.

On to `COc1c(Cl)ccc(-c2nc(C(=O)O)c(Cl)c(N)c2F)c1F` [Compound A Acid, 4-amino-3-chloro-5-fluoro-6-(4-chloro-2-fluoro-3-methoxy-phenyl)pyridine-2-carboxylic acid], for which, in assay [1] (setting [4]), the pest or weed control at 4.38 g/ha is 0%. Besides, the pest or weed control at 5.3 g/ha in assay [1] (Dinebra chinensis, post-emergence, 480 h, 20 DAA, 5.3 gae/ha, read-out: Visual Weed Control (%) Obs) worked out at 0%. The pest or weed control at 8.75 g/ha in assay [1] (setting [4]) came to 0%; in assay [1] (Dinebra chinensis, post-emergence, 504 h, 21 DAA, read-out: Visual Weed Control (%) Obs), 40%. In addition, the pest or weed control at 10.6 g/ha in assay [1] (Dinebra chinensis, post-emergence, 480 h, 20 DAA, 10.6 gae/ha, read-out: Visual Weed Control (%) Obs) was found to be 10%. In addition, the pest or weed control at 17.5 g/ha in assay [1] (Dinebra chinensis, post-emergence, 480 h, 20 DAA, 17.5 gae/ha, read-out: Visual Weed Control (%) Obs) was 10%; in assay [1] (Dinebra chinensis, post-emergence, 504 h, 21 DAA, 17.5 gae/ha, read-out: Visual Weed Control (%) Obs), 30%. For the same compound, the pest or weed control at 19.4 g/ha in assay [1] (Dinebra chinensis, post-emergence, 480 h, 20 DAA, 19.4 gae/ha, read-out: Visual Weed Control (%) Obs) worked out at 5%. In addition, the pest or weed control at 21.2 g/ha in assay [1] (Dinebra chinensis, post-emergence, 480 h, 20 DAA, 21.2 gae/ha, read-out: Visual Weed Control (%) Obs) amounted to 15%. Further, the “Visual Weed Control (%) Obs” value came out at 0% in assay [2] (20 DAA, 5.3 gae/ha); 15% in assay [2] (20 DAA, 10.6 gae/ha); 25% in assay [2] (20 DAA, 21.2 gae/ha); 25% in assay [2] (21 DAA, 4.38 gae/ha); 30% in assay [2] (21 DAA, 8.75 gae/ha); 45% in assay [2] (21 DAA, 17.5 gae/ha). Further, the “Visual Weed Control (%) Obs” value is on record as 25% in assay [2] (22 DAA, 8 gae/ha); 35% in assay [2] (22 DAA, 16 gae/ha); 40% in assay [2] (22 DAA, 32 gae/ha); 70% in assay [3] (21 DAA, 4.38 gae/ha); 60% in assay [3] (22 DAA, 8 gae/ha); 90% in assay [3] (22 DAA, 16 gae/ha).
With `COc1c(Cl)ccc(-c2nc(C(=O)OCc3ccccc3)c(Cl)c(N)c2F)c1F` [Compound A Benzyl Ester], the “Visual Weed Control Obs” value in assay [1] (22 DAA, 8 gae/ha) amounted to 0%; in assay [2] (22 DAA, 8 gae/ha) it was 10%; in assay [2] (22 DAA, 16 gae/ha), 10%; in assay [2] (22 DAA, 32 gae/ha) it was 35%. For the same compound, the pest or weed control at 8.75 g/ha in assay [1] (Dinebra chinensis, post-emergence, 480 h, read-out: Visual Weed Control (%) Obs, 20 DAA) was found to be 20%; in assay [1] (Dinebra chinensis, post-emergence, 576 h, read-out: Visual Weed Control (%) Obs, 24 DAA), 0%. The pest or weed control at 17.5 g/ha in assay [1] (Dinebra chinensis, post-emergence, 480 h, read-out: Visual Weed Control (%) Obs, 20 DAA, 17.5 gae/ha) was determined as 40%; in assay [1] (Dinebra chinensis, post-emergence, 576 h, read-out: Visual Weed Control (%) Obs, 24 DAA, 17.5 gae/ha), 10%. In addition, the pest or weed control at 4.38 g/ha in assay [1] (Dinebra chinensis, post-emergence, 504 h, read-out: Visual Weed Control (%) Obs, 21 DAA) was found to be 0%. Moreover, the pest or weed control at 8 g/ha is 20% in assay [1] (Dinebra chinensis, post-emergence, 504 h, read-out: Visual Weed Control (%) Obs, 21 DAA, 8 gae/ha) and 0% in assay [1] (Dinebra chinensis, post-emergence, 528 h, read-out: Visual Weed Control (%) Obs, 22 DAA, 8 gae/ha). In addition, the pest or weed control at 16 g/ha in assay [1] (Dinebra chinensis, post-emergence, 528 h, read-out: Visual Weed Control (%) Obs, 22 DAA, 16 gae/ha) worked out at 20%. Moreover, in assay [1] (Dinebra chinensis, post-emergence, 528 h, read-out: Visual Weed Control (%) Obs, 22 DAA, 32 gae/ha), the pest or weed control at 32 g/ha worked out at 15%. The “Visual Weed Control (%) Obs” value was found to be 10% in assay [2] (20 DAA, 4.38 gae/ha); 10% in assay [2] (20 DAA, 8.75 gae/ha); 25% in assay [2] (20 DAA, 17.5 gae/ha); 0% in assay [2] (21 DAA, 4.38 gae/ha); 10% in assay [2] (21 DAA, 8 gae/ha); 10% in assay [2] (21 DAA, 8.75 gae/ha). Moreover, the “Visual Weed Control (%) Obs” value was 10% in assay [2] (21 DAA, 16 gae/ha); 30% in assay [2] (21 DAA, 17.5 gae/ha); 45% in assay [2] (21 DAA, 32 gae/ha); 15% in assay [3] (20 DAA, 4.38 gae/ha); 60% in assay [3] (20 DAA, 8.75 gae/ha); 90% in assay [3] (20 DAA, 17.5 gae/ha). Moreover, the “Visual Weed Control (%) Obs” value in assay [3] (21 DAA, 4.38 gae/ha) is 50%; in assay [3] (22 DAA, 16 gae/ha) it was 60% and 80%.
In the case of `COCC(=O)OC(c1ncccc1S(=O)(=O)NC(=O)Nc1nc(OC)cc(OC)n1)C(C)F` (centres unmarked) [Flucetosulfuron, 1-[3-[[[[(4,6-dimethoxy-2-pyrimidinyl)amino]carbonyl]amino]sulfonyl]-2-pyridinyl]-2-fluoropropyl 2-methoxyacetate], in assay [1] (Dinebra chinensis, post-emergence, 504 h, 21 DAA, 0.05 gai/ha, read-out: Visual Weed Control (%) Obs), the pest or weed control at 0.05 g/ha worked out at 0%. Moreover, the pest or weed control at 0.1 g/ha in assay [1] (Dinebra chinensis, post-emergence, 504 h, 21 DAA, 0.1 gai/ha, read-out: Visual Weed Control (%) Obs) turned out to be 0%. Moreover, the pest or weed control at 1.7 g/ha in assay [1] (Dinebra chinensis, post-emergence, 528 h, 22 DAA, 1.7 gai/ha, read-out: Visual Weed Control (%) Obs) was determined as 0%. Further, the pest or weed control at 5 g/ha in assay [1] (Dinebra chinensis, post-emergence, 528 h, 22 DAA, 5 gai/ha, read-out: Visual Weed Control (%) Obs) is 0%. Moreover, the “Visual Weed Control (%) Obs” value in assay [2] (21 DAA, 0.05 gai/ha) is 20%; in assay [2] (21 DAA, 0.2 gai/ha) it was 20%; in assay [2] (22 DAA, 5 gai/ha), 90%; in assay [2] (22 DAA, 10 gai/ha) it was 90%; in assay [3] (21 DAA, 0.05 gai/ha), 0%; in assay [3] (21 DAA, 0.1 gai/ha), 0%. For the same compound, in assay [3] (21 DAA, 0.2 gai/ha), the “Visual Weed Control (%) Obs” value is given as 20%.
For the compound `COC(=O)c1ccccc1CS(=O)(=O)NC(=O)Nc1nc(OC)cc(OC)n1` [Bensulfuron-methyl, methyl 2-[[[[[(4,6-dimethoxy-2-pyrimidinyl)amino]carbonyl]amino]sulfonyl]methyl]benzoate, reference compound], the pest or weed control at 70 g/ha in assay [1] (Dinebra chinensis, post-emergence, 480 h, 20 DAA, 70 gai/ha, read-out: Visual Weed Control (%) Obs) is 5%. Besides, the pest or weed control at 17.5 g/ha in assay [1] (Dinebra chinensis, post-emergence, 504 h, 21 DAA, 17.5 gai/ha, read-out: Visual Weed Control (%) Obs) turned out to be 10%. Moreover, the pest or weed control at 35 g/ha in assay [1] (Dinebra chinensis, post-emergence, 504 h, 21 DAA, 35 gai/ha, read-out: Visual Weed Control (%) Obs) came out at 10%.
